Measurements taken from US7071293B1, “Alpha helical peptides with broad spectrum antimicrobial activity that are insensitive to salt” (priority 1999, dated 2006).
Values after ≈ are worked out from the molar mass of the structure shown. Read-outs that look alike come from different tables or passages of the source. Ends that are not written are not given here.

Experiments:
Mycoplasma hominis = details: cited from earlier work
Mycoplasma pneumoniae = details: cited from earlier work
Staphylococcus aureus = details: Staphylococcus aureus, cited from earlier work
P. aeruginosa PAO1 [1] = test: Relative time for killing (luminescence measured at intervals); type: cell-based; details: peptide at ten times its EC50 (SMAP29X-18D 15.7 X, SMAP29X-14A 17.4 X), 25 mM ionic strength
P. aeruginosa PAO1 [2] = details: avg ± sem
[3] = test system: vancomycin and methicillin-resistant Gram-positives
E. coli ML-35p = details: Table 13; for MIC E. coli [NaCl] High: high salt underlay (10 mM sodium phosphate buffer +100 mM NaCl, pH 7.4); for MIC E. coli [NaCl] Low: low salt underlay (10 mM sodium phosphate buffer, pH 7.4)
P. aeruginosa MR 3007 = details: MR 3007, pH 7.4
S. aureus 930918-3 = details: 930918-3, pH 7.4
MRSA ATCC 33591 = details: ATCC 33591, pH 7.4
[4] = E.f 142-1498-1 (Enterococcus fecaelis), Van A (vancomycin-resistant)
[5] = E.f 142-6873-3 (Enterococcus fecaelis), Van B (vancomycin-resistant)

| Molecule | Half-time of Killing (min. avg. ± sem) (P. aeruginosa PAO1 [1]) | EC50 P. aeruginosa PAO1 (P. aeruginosa PAO1 [2]; ionic strength 25 mM) | EC50 P. aeruginosa PAO1 (P. aeruginosa PAO1 [2]; ionic strength 175 mM) | MIC [3, 4] | MIC [3, 5] | MIC E. coli [NaCl] High (E. coli ML-35p) | MIC E. coli [NaCl] Low (E. coli ML-35p) | MIC P. aeruginosa [NaCl] High (P. aeruginosa MR 3007) | MIC P. aeruginosa [NaCl] Low (P. aeruginosa MR 3007) | MIC S. aureus [NaCl] High (S. aureus 930918-3) | MIC S. aureus [NaCl] Low (S. aureus 930918-3) | MIC MRSA [NaCl] High (MRSA ATCC 33591) | MIC MRSA [NaCl] Low (MRSA ATCC 33591) | other results |
| --- | --- | --- | --- | --- | --- | --- | --- | --- | --- | --- | --- | --- | --- | --- |
| CCC[C@@H]1C[C@@H](C(=O)N[C@@H]([C@H]2O[C@H](SC)[C@H](O)[C@@H](O)[C@H]2O)[C@@H](C)O)N(C)C1 [LINCOMYCIN, lincomycin] | – | – | – | – | – | – | – | – | – | – | – | – | – | Range (Mycoplasma hominis; MIC range): 0.5–16; MIC50 (Mycoplasma hominis): 2 µg/mL (≈ 4.92 µM); MIC90 (Mycoplasma hominis): 4 µg/mL (≈ 9.84 µM); Range (Mycoplasma pneumoniae; MIC range): 2–32; MIC50 (Mycoplasma pneumoniae): 8 µg/mL (≈ 19.7 µM); MIC90 (Mycoplasma pneumoniae): 32 µg/mL (≈ 78.7 µM); Range (Staphylococcus aureus; MIC range): 0.5–512; MIC50 (Staphylococcus aureus): 1 µg/mL (≈ 2.46 µM); MIC90 (Staphylococcus aureus): 1 µg/mL (≈ 2.46 µM) |
| KNLRRIIRKIIHIIKKYG [SMAP29X-18D] | 2.9 min | 0.29 ± 0.01 µg/mL | 0.58 ± 0.05 µg/mL | 32 µg/mL | 64 µg/mL | 0.5 µg/mL | 0.8 µg/mL | 0.5 µg/mL | 1.1 µg/mL | 1.4 µg/mL | 2.0 µg/mL | 0.8 µg/mL | 8.7 µg/mL | – |
| LRRIIRKIIHIIKK-NH2 [SMAP29X-14A] | 20.9 min | 0.23 ± 0.03 µg/mL | 1.59 ± 0.22 µg/mL | >64 µg/mL | >64 µg/mL | 0.9 µg/mL | 2.9 µg/mL | 2.7 µg/mL | 2.0 µg/mL | 1.9 µg/mL | 1.1 µg/mL | >79.1 µg/mL | 7.6 µg/mL | – |
